Consider 45 compounds from patent US9145373B2, “Certain kynurenine-3-monooxygenase inhibitors, pharmaceutical compositions, and methods of use thereof” (CHDI FOUNDATION, INC., priority 2008, dated 2015).

Structures can show the parent of a compound that is named as a salt.

In the first assay the target is T1, KMO mouse enzyme (Mus musculus, UniProt Q91WN4).
T1 construct: KMO enzyme prepared at Evotec from mouse liver (4-6 weeks old) via mitochondria isolation; from tissue; host or cells: mouse liver (4-6 weeks old), mitochondria isolation, prepared at Evotec
T1 sequence (Q91WN4 whole entry): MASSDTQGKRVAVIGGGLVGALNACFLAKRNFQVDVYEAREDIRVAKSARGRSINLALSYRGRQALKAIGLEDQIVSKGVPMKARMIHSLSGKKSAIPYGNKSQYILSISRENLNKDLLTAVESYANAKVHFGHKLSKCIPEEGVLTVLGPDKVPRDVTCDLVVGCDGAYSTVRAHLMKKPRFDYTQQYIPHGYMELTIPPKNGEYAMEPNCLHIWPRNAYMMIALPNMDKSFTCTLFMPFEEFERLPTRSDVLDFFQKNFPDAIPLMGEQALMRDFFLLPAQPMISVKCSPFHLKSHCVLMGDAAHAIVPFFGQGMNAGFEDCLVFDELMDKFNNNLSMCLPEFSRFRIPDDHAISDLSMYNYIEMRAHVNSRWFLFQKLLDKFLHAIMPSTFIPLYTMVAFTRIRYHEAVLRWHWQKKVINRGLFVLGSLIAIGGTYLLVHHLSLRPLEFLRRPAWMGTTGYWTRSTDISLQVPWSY
The assay is described as follows: KMO mouse enzyme assay: L-Kynurenine hydroxylation to 3-Hydroxy-Kynurenine monitored by LC/MS (MRM). The following applies: compound at 10 μM; KMO enzyme from mouse liver mitochondria. It counts as biochemical. The procedure: A method of monitoring L-Kynurenine (KYN) hydroxylation to form 3-Hydroxy-Kynurenine (3OH-KYN) by LC/MS is described. Product is quantified by multiple reaction monitoring (MRM method).
• Compound: Stock concentrations: 10 mM in 100% DMSO • Enzyme: KMO enzyme prepared at Evotec from mouse liver (4-6 weeks old) via mitochondria isolation as described in the literature • Substrate: L-Kynurenine (Sigma: Cat# K3750, stock concentration: 10 mM in 100 mM potassium phosphate buffer, pH 7.4) Assay Conditions: […]
For `O=C(c1cc(-c2ccc(Cl)c(Cl)c2)ncn1)N1CC2(CC2)c2ccccc21` [[6-(3,4-Dichloro-phenyl)-pyrimidin-4-yl]-(1′,2′-dihydro-spiro[cyclopropane-1,3′-[3H]indol]-1′)-methanone], the “INH.Mouse @ 10 μM” value worked out at 100.0.

Still in this assay, the particulars now being: compound at 10 μM; KMO enzyme from mouse liver mitochondria; read-out: INH.Mouse @ 10 μM.
Turning to `O=C(O)c1cc(-c2cc(F)cc(C(F)(F)F)c2)ncn1` [6-(3-Fluoro-5-trifluoromethyl-phenyl)-pyrimidine-4-carboxylic acid], the inhibition at 10 µM stood at 75.8%. The same measure, in the same setting: as for `O=C(Nc1cncnc1)c1cc(-c2cccc(Cl)c2)ncn1` [6-(3-Chloro-phenyl)-pyrimidine-4-carboxylic acid pyrimidin-5-ylamide], the figure is 100%.

`COC(=O)c1cc(-c2ccc(Cl)c(Cl)c2)nc(C)n1` [6-(3,4-Dichloro-phenyl)-2-methyl-pyrimidine-4-carboxylic acid methyl ester]: the inhibition at 10 µM was found to be 95.5%. Take `O=C(c1cc(-c2cccc(Cl)c2)ncn1)N1CCC(O)CC1` [[6-(3-Chloro-phenyl)-pyrimidin-4-yl]-(4-hydroxy-piperidin-1-yl)-methanone]: the inhibition at 10 µM was 100%.

For `COc1cncc(NC(=O)c2cc(-c3cc(Cl)cc(Cl)c3)ccn2)c1` [4-(3,5-Dichloro-phenyl)-pyridine-2-carboxylic acid (5-methoxy-pyridin-3-yl)-amide], the inhibition at 10 µM was found to be 52.6%.

`O=C(Nc1ccc(F)cc1)c1cc(-c2cccc(Cl)c2)ncn1` [6-(3-Chloro-phenyl)-pyrimidine-4-carboxylic acid (4-fluoro-phenyl)-amide]: the inhibition at 10 µM was determined as 98.9%.

Regarding `O=C(Nc1cccnc1)c1cc(-c2cccc(Cl)c2)ncn1` [6-(3-Chloro-phenyl)-pyrimidine-4-carboxylic acid pyridin-3-ylamide], the inhibition at 10 µM came to 98.6%. On the same count and under the same terms, as for `COc1ccc(S(=O)(=O)Nc2cc(-c3ccc(Cl)c(Cl)c3)ncn2)cc1OC` [N-[6-(3,4-Dichloro-phenyl)-pyrimidin-4-yl]-3,4-dimethoxy-benzenesulfonamide], the figure is 85%. The same measure, in the same setting: as for `O=C(NCCO)c1cc(-c2cccc(Cl)c2)ncn1` [6-(3-Chloro-phenyl)-pyrimidine-4-carboxylic acid (2-hydroxy-ethyl)-amide], the figure is 95.8%; as for `O=S(=O)(O)c1cc(-c2cccc(Cl)c2)ncn1` [Sodium; 6-(3-chloro-phenyl)-pyrimidine-4-sulfonate], 97.1%. Same read-out and setting: as for `CN(C(=O)c1cc(-c2cccc(Cl)c2)ncn1)c1ccc2c(c1)OC(F)(F)O2` [6-(3-Chloro-phenyl)-pyrimidine-4-carboxylic acid (2,2-difluoro-benzo[1,3]dioxol-5-yl)-methyl-amide], the figure is 98.7%; as for `COC(=O)c1ncnc(-c2ccc(Cl)c(Cl)c2)c1F` [6-(3,4-Dichloro-phenyl)-5-fluoro-pyrimidine-4-carboxylic acid methyl ester], 100%. As for `COC(=O)c1cc(-c2cccc(Cl)c2)ccn1` [4-(3-Chloro-phenyl)-pyridine-2-carboxylic acid methyl ester], the inhibition at 10 µM amounted to 100%. Take `O=C(Nc1ccc2c(c1)OC(F)(F)O2)c1cc(-c2cccc(Cl)c2)ncn1` [6-(3-Chloro-phenyl)-pyrimidine-4-carboxylic acid (2,2-difluoro-benzo[1,3]dioxol-5-yl)-amide]: the inhibition at 10 µM stood at 97.7%. The same measure, in the same setting: as for `O=C(c1cc(-c2cccc(Cl)c2)ncn1)N1CCc2cnccc21` [[6-(3-Chloro-phenyl)-pyrimidin-4-yl]-(2,3-dihydro-pyrrolo[3,2-c]pyridin-1-yl)-methanone], the figure is 100%. For `COC(=O)c1cc(-c2cccc(F)c2)ncn1` [6-(3-Fluoro-phenyl)-pyrimidine-4-carboxylic acid methyl ester], the inhibition at 10 µM amounted to 100%. Still for that read-out and setting: as for `O=C(Nc1nncs1)c1cc(-c2cccc(Cl)c2)ncn1` [6-(3-Chloro-phenyl)-pyrimidine-4-carboxylic acid [1,3,4]thiadiazol-2-ylamide], the figure is 97.4%; as for `O=C(Nc1nccs1)c1cc(-c2cccc(Cl)c2)ncn1` [6-(3-Chloro-phenyl)-pyrimidine-4-carboxylic acid thiazol-2-ylamide], 100%. The same measure, in the same setting: as for `O=C(Nc1nccs1)c1cc(-c2ccc(Cl)c(Cl)c2)ncn1` [6-(3,4-Dichloro-phenyl)-pyrimidine-4-carboxylic acid thiazol-2-ylamide], the figure is 83.7%; as for `O=C(c1cc(-c2cc(Cl)cc(Cl)c2)ccn1)N1CCc2ccccc21` [[4-(3,5-Dichloro-phenyl)-pyridin-2-yl]-(2,3-dihydro-indol-1-yl)-methanone], 54.5%; as for `O=C(c1cc(-c2cccc(Cl)c2)ccn1)N1CCc2ccccc21` [[4-(3-Chloro-phenyl)-pyridin-2-yl]-(2,3-dihydro-indol-1-yl)-methanone], 100%. Same read-out and setting: as for `CC1Cc2ccccc2N1C(=O)c1cc(-c2cccc(Cl)c2)ncn1` (stereo not drawn) [[6-(3-Chloro-phenyl)-pyrimidin-4-yl]-(2-methyl-2,3-dihydro-indol-1-yl)-methanone], the figure is 76.9%; as for `Cc1ccc(NC(=O)c2cc(-c3cccc(Cl)c3)ncn2)cc1` [6-(3-Chloro-phenyl)-pyrimidine-4-carboxylic acid p-tolylamide], 100%. Take `NC(=O)c1cc(-c2cccc(Cl)c2)ncn1` [6-(3-Chloro-phenyl)-pyrimidine-4-carboxylic acid amide]: the inhibition at 10 µM is 77.5%.

In the case of `COc1cccc(NC(=O)c2cc(-c3cccc(Cl)c3)ncn2)c1` [6-(3-Chloro-phenyl)-pyrimidine-4-carboxylic acid (3-methoxy-phenyl)-amide], the inhibition at 10 µM amounted to 97.1%. On the same count and under the same terms, as for `COC(=O)c1cc(-c2cccc(C(F)(F)F)c2)ncn1` [6-(3-Trifluoromethyl-phenyl)-pyrimidine-4-carboxylic acid methyl ester], the figure is 94.5%; as for `O=C1CN(C(=O)c2cc(-c3cccc(Cl)c3)ncn2)CCN1` [4-[6-(3-Chloro-phenyl)-pyrimidine-4-carbonyl]-piperazin-2-one], 100%. Same read-out and setting: as for `COC(=O)c1cc(-c2cncc(Cl)c2)ncn1` [6-(5-Chloro-pyridin-3-yl)-pyrimidine-4-carboxylic acid methyl ester], the figure is 93.2%. On the same count and under the same terms, as for `O=C(Nc1cnccn1)c1cc(-c2cccc(Cl)c2)ncn1` [6-(3-Chloro-phenyl)-pyrimidine-4-carboxylic acid pyrazin-2-ylamide], the figure is 100%. On to `Cc1ncccc1NC(=O)c1cc(-c2cccc(Cl)c2)ncn1` [6-(3-Chloro-phenyl)-pyrimidine-4-carboxylic acid (2-methyl-pyridin-3-yl)-amide], for which the inhibition at 10 µM is 97.8%.

`O=C(Nc1ccncc1)c1cc(-c2ccc(Cl)c(Cl)c2)ncn1` [6-(3,4-Dichloro-phenyl)-pyrimidine-4-carboxylic acid pyridin-4-ylamide]: the inhibition at 10 µM came out at 90.1%. `O=C(O)c1ccnc(-c2cccc(Cl)c2)c1` [2-(3-Chloro-phenyl)-isonicotinic acid hydrochloride salt]: the inhibition at 10 µM stood at 53.5%. Same read-out and setting: as for `C[C@H](O)CNC(=O)c1cc(-c2cccc(Cl)c2)ncn1` [6-(3-Chloro-phenyl)-pyrimidine-4-carboxylic acid ((S)-2-hydroxy-propyl)-amide], the figure is 87.3%; as for `COC(=O)c1cc(-c2cccc(Cl)c2)ncn1` [6-(3-Chloro-phenyl)-pyrimidine-4-carboxylic acid methyl ester], 106%; as for `O=C(c1cc(-c2cccc(Cl)c2)ncn1)N1Cc2ccccc2C1` [[6-(3-Chloro-phenyl)-pyrimidin-4-yl]-(1,3-dihydro-isoindol-2-yl)-methanone], 100%. Still for that read-out and setting: as for `CS(=O)(=O)Nc1cc(-c2ccc(Cl)c(Cl)c2)ncn1` [N-[6-(3,4-Dichloro-phenyl)-pyrimidin-4-yl]-methanesulfonamide], the figure is 51.2%.

Turning to `O=C(Nc1ccccn1)c1cc(-c2ccc(Cl)c(Cl)c2)ncn1` [6-(3,4-Dichloro-phenyl)-pyrimidine-4-carboxylic acid pyridin-2-ylamide], the inhibition at 10 µM was 100%. For `COC(=O)c1cc(-c2ccccc2)ncn1` [6-Phenyl-pyrimidine-4-carboxylic acid methyl ester], the inhibition at 10 µM was determined as 100%. On the same count and under the same terms, as for `O=C(Nc1ccccc1)c1cc(-c2cc(Cl)cc(Cl)c2)ncn1` [6-(3,5-Dichloro-phenyl)-pyrimidine-4-carboxylic acid phenylamide], the figure is 77.6%; as for `COc1ccc(NC(=O)c2cc(-c3cccc(Cl)c3)ncn2)cn1` [6-(3-Chloro-phenyl)-pyrimidine-4-carboxylic acid (6-methoxy-pyridin-3-yl)-amide], 93.4%. On the same count and under the same terms, as for `Cc1ccc(NC(=O)c2cc(-c3cccc(Cl)c3)ccn2)cc1` [4-(3-Chloro-phenyl)-pyridine-2-carboxylic acid p-tolylamide], the figure is 85.6%.

Turning to `O=C(Nc1ccccn1)c1cc(-c2cccc(Cl)c2)ncn1` [6-(3-Chloro-phenyl)-pyrimidine-4-carboxylic acid pyridin-2-ylamide], the inhibition at 10 µM was 100%. With `CN(C(=O)c1cc(-c2cccc(Cl)c2)ncn1)c1ccccc1` [6-(3-Chloro-phenyl)-pyrimidine-4-carboxylic acid methyl-phenyl-amide], the inhibition at 10 µM is 100%. As for `COc1cccc(-c2cc(C(=O)O)ncn2)c1` [6-(3-Methoxy-phenyl)-pyrimidine-4-carboxylic acid], the inhibition at 10 µM was determined as 81%.
